How the values were obtained:
[1] = molecular target: T1, Gal4-RORγ-LBD (Homo sapiens, UniProt P51449); assay: Gal4-RORγ Luciferase Reporter Assay in HEK-293T Cells; type: cell-based; details: HEK-293 cells; for Gal4-RORγ Assay Max Response: maximum response
T1 construct: expressed in transfected cells
T1 sequence (P51449 269-508 limits assumed): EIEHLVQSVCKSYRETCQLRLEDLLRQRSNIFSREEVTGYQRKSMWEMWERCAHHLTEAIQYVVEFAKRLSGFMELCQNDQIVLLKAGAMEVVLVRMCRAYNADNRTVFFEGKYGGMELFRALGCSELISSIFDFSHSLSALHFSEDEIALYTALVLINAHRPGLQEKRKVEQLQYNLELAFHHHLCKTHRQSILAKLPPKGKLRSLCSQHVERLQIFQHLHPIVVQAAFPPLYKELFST
Summary of the method: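 Max Response was taken as the upper plateau of a 4-parameter logistic fit of luciferase signal, normalized to 100 for wells without ursolic acid or compound. Transiently Gal4-RORγ-LBD/Gal4-luc transfected HEK-293 cells carrying […] ursolic acid were incubated with test compounds (0.2% DMSO) overnight at 37 °C and read with One-Glo.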

[2] = molecular target: T2, RORγ-LBD (Homo sapiens, UniProt P51449); assay: RORγ-Ligand Binding Domain (LBD) TR-FRET Assay; type: biochemical; details: for TR-FRET Assay Max Response: maximum response;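 for TR-FRET Assay Max Response: 665/615 nm signal ratio set to 100 without ursolic acid or test compound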
T2 construct: made in house; host or cells: SF9 cells (baculovirus); used as diluted lysate
T2 sequence (P51449 269-508 limits assumed): T1 sequence (P51449 269-508 limits assumed)
Summary of the method: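 Compounds, diluted in DMSO and then in assay buffer (1% DMSO final), were combined with His-tagged RORγ-LBD lysate at roughly 3 nM final and a 200 nM biotinylated SRC1 LXXLL peptide. Ursolic acid was included at 2 μM final. Coactivator recruitment was detected by TR-FRET.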

[3] = luciferase reporter, in presence of ursolic acid
[4] = luciferase reporter, with ursolic acid
[5] = ursolic acid present, luciferase readout
[6] = with 2 μM ursolic acid (RORγ antagonist), highest test concentration 10 μM

## COc1cc(S(=O)(=O)N2c3cc(/C=C/c4c(F)cccc4Cl)ccc3O[C@@H](CO)[C@H]2C)ccc1F [Example 136, ((2R,3R)-6-((E)-2-Chloro-6-fluorostyryl)-4-((4-fluoro-3-methoxyphenyl)sulfonyl)-3-methyl-3,4-dihydro-2H-benzo[b][1,4]oxazin-2-yl)methanol]
[1]; [3]
  EC50: < 500 nM
  Gal4-RORγ Assay Max Response: ** (a value in the range of greater than 90 to 150)
[2]; RORγ-LBD TR-FRET assay
  EC50: < 500 nM
  TR-FRET Assay Max Response: **** (a value greater than 200)

## C/C(=C\c1ccc2c(c1)C(S(=O)(=O)c1cccc(C(F)(F)F)c1)CC(CN)O2)c1c(F)cccc1Cl (stereo not shown) [Example 180, (E)-(6-(2-(2-Chloro-6-fluorophenyl)prop-1-en-1-yl)-4-((3-(trifluoromethyl)phenyl)sulfonyl)chroman-2-yl)methanamine]
[1]; [3]
  EC50: 500 to 5000 nM
  Gal4-RORγ Assay Max Response: * (a value in the range of 30 to 90)
[2]; RORγ-LBD TR-FRET assay
  EC50: < 500 nM
  TR-FRET Assay Max Response: *** (a value in the range of greater than 150 to 200)

## C/C(=C\c1ccc2c(c1F)N(S(=O)(=O)c1cccc(C(F)(F)F)c1)C[C@H](CCC(=O)O)O2)c1c(F)cccc1Cl [Example 62, (S,E)-3-(6-(2-(2-Chloro-6-fluorophenyl)prop-1-en-1-yl)-5-fluoro-4-((3-(trifluoromethyl)phenyl)sulfonyl)-3,4-dihydro-2H-benzo[b][1,4]oxazin-2-yl)propanoic acid]
[1]; [4]
  EC50: 500 to 5000 nM
[2]; RORγ-LBD TR-FRET
  EC50: < 500 nM

## COC(=O)CC[C@H]1CN(S(=O)(=O)c2cccc(C(F)(F)F)c2)c2cc(/C=C(\C)c3c(Cl)cccc3Cl)ccc2O1 [Example 86AF, (S,E)-methyl 3-(6-(2-(2,6-dichlorophenyl)prop-1-en-1-yl)-4-((3-(trifluoromethyl)phenyl)-sulfonyl)-3,4-dihydro-2H-benzo[b][1,4]oxazin-2-yl)propanoate]
[1]; [4]
  EC50: 500 to 5000 nM
[2]; RORγ-LBD TR-FRET
  EC50: < 500 nM

## COC(=O)CC[C@H]1CN(S(=O)(=O)c2cccc(OC(F)F)c2)c2cc(/C=C/c3c(F)cccc3Cl)ccc2O1 [Example 89B, (S,E)-methyl 3-(6-(2-chloro-6-fluorostyryl)-4-((3-(difluoromethoxy)phenyl)sulfonyl)-3,4-dihydro-2H-benzo[b][1,4]oxazin-2-yl)propanoate]
[1]; [4]
  EC50: 500 to 5000 nM
[2]; RORγ-LBD TR-FRET
  EC50: < 500 nM

## C/C(=C\c1ccc2c(c1)N(S(=O)(=O)c1cccc(C(F)(F)F)c1)C[C@H](CCC(=O)N(C)CCC(=O)O)O2)c1c(F)cccc1Cl [Example 129Q, (S,E)-3-(3-(6-(2-(2-chloro-6-fluorophenyl)prop-1-en-1-yl)-4-((3-(trifluoromethyl)-phenyl)sulfonyl)-3,4-dihydro-2H-benzo[b][1,4]-oxazin-2-yl)-N-methyl-propanamido)-propanoic acid]
[1]; [5]
  EC50: < 500 nM
[2]; [6]
  EC50: < 500 nM

## CCOC(=O)C(C)(C)CC1CC(S(=O)(=O)c2ccc(F)c(OC)c2)c2cc(/C=C(\C)c3c(F)cccc3Cl)ccc2O1 (stereo not shown) [Example 186J, ethyl (E)-3-(6-(2-(2-chloro-6-fluorophenyl)prop-1-en-1-yl)-4-44-fluoro-3-methoxyphenyl)-sulfonyl)chroman-2-yl)-2,2-dimethylpropanoate]
[1]; [3]
  EC50: 500 to 5000 nM
  Gal4-RORγ Assay Max Response: ** (a value in the range of greater than 90 to 150)
[2]; RORγ-LBD TR-FRET assay
  EC50: < 500 nM
  TR-FRET Assay Max Response: ** (a value in the range of greater than 90 to 150)

## C/C(=C\c1ccc2c(c1)N(S(=O)(=O)c1cccc(C(F)(F)F)c1)C[C@H](CCC(=O)N1CC(C(=O)O)C1)O2)c1c(F)cccc1Cl [Example 129D, (S,E)-1-(3-(6-(2-(2-chloro-6-fluorophenyl)-prop-1-en-1-yl)-4-((3-(trifluoromethyl)phenyl)sulfonyl)-3,4-dihydro-2H-benzo[b][1,4]oxazin-2-yl)propanoyl)azetidine-3-carboxylic acid]
[1]; [3]
  EC50: < 500 nM
  Gal4-RORγ Assay Max Response: ** (a value in the range of greater than 90 to 150)
[2]; RORγ-LBD TR-FRET assay
  EC50: < 500 nM
  TR-FRET Assay Max Response: **** (a value greater than 200)

## COc1cc(S(=O)(=O)N2C[C@H](CNC(=O)C(=O)O)Oc3ccc(/C=C(\C)c4c(F)cccc4Cl)cc32)ccc1F [Example 135B, (S,E)-2-(((6-(2-(2-chloro-6-fluorophenyl)prop-1-en-1-yl)-4-((4-fluoro-3-methoxyphenyl)sulfonyl)-3,4-dihydro-2H-benzo[b][1,4]oxazin-2-yl)methyl)amino)-2-oxoacetic acid]
[1]; [3]
  EC50: > 10000 nM
[2]; RORγ-LBD TR-FRET assay
  EC50: < 500 nM
  TR-FRET Assay Max Response: **** (a value greater than 200)

## CC/C(=C\c1ccc2c(c1)N(S(=O)(=O)c1cccc(C(F)(F)F)c1)C[C@H](CCC(=O)O)O2)C(C)C [Example 191G, (S,E)-3-(6-(2-ethyl-3-methylbut-1-en-1-yl)-4-((3-(trifluoromethyl)-phenyl)sulfonyl)-3,4-dihydro-2H-benzo[b][1,4]oxazin-2-yl)propanoic acid]
[1]; [5]
  EC50: < 500 nM
[2]; [6]
  EC50: < 500 nM

## COC(=O)CC[C@H]1CN(S(=O)(=O)c2ccc(F)c(OC(F)F)c2)c2cc(/C=C/c3c(F)cccc3Cl)ccc2O1 [Example 89CU, methyl (S,E)-3-(6-(2-chloro-6-fluorostyryl)-4-((3-(difluoromethoxy)-4-fluorophenyl)-sulfonyl)-3,4-dihydro-2H-benzo[b][1,4]oxazin-2-yl)propanoate]
[1]; [4]
  EC50: 500 to 5000 nM
[2]; RORγ-LBD TR-FRET
  EC50: < 500 nM

## COc1cccc(Cl)c1/C=C/c1ccc2c(c1)N(S(=O)(=O)c1cccc(C(F)(F)F)c1)C[C@H](CCC(=O)O)O2 [Example 89EY, (S,E)-3-(6-(2-chloro-6-methoxystyryl)-4-((3-(trifluoromethyl)phenyl)-sulfonyl)-3,4-dihydro-2H-benzo[b][1,4]oxazin-2-yl)propanoic acid]
[1]; [4]
  EC50: 500 to 5000 nM
[2]; RORγ-LBD TR-FRET
  EC50: < 500 nM

## COC(=O)CC[C@H]1CN(S(=O)(=O)c2cc(C(F)(F)F)cnc2OC[C@H](C)O)c2cc(/C=C/c3c(F)cccc3Cl)ccc2O1 [Example 89FN, methyl 3-((S)-6-((E)-2-chloro-6-fluorostyryl)-4-((2-((S)-2-hydroxypropoxy)-5-(trifluoromethyl)pyridin-3-yl)sulfonyl)-3,4-dihydro-2H-benzo[b][1,4]oxazin-2-yl)propanoate]
[1]; [4]
  EC50: 500 to 5000 nM
[2]; RORγ-LBD TR-FRET
  EC50: < 500 nM

## C/C(=C\c1ccc2c(c1)N(S(=O)(=O)c1cn(C(F)F)nc1C)C[C@H](CCC(=O)O)O2)c1c(F)cccc1Cl [Example 86W, (S,E)-3-(6-(2-(2-chloro-6-fluorophenyl)prop-1-en-1-yl)-4-((1-(difluoromethyl)-3-methyl-1H-pyrazol-4-yl)sulfonyl)-3,4-dihydro-2H-benzo[b][1,4]oxazin-2-yl)propanoic acid]
[1]; [4]
  EC50: > 10000 nM
[2]; RORγ-LBD TR-FRET
  EC50: < 500 nM

## Cn1nc(/C=C/c2ccc3c(c2)N(S(=O)(=O)c2cccc(C(F)(F)F)c2)C[C@H](CCC(=O)O)O3)c2c(Cl)cccc21 [Example 89BO, (S,E)-3-(6-(2-(4-chloro-1-methyl-1H-indazol-3-yl)vinyl)-4-((3-(trifluoromethyl)phenyl)sulfonyl)-3,4-dihydro-2H-benzo[b][1,4]-oxazin-2-yl)propanoic acid]
[1]; [4]
  EC50: 500 to 5000 nM
[2]; RORγ-LBD TR-FRET
  EC50: < 500 nM

## CCc1ccccc1/C=C/c1ccc2c(c1)N(S(=O)(=O)c1cccc(OC(F)F)c1)C[C@H](CCC(=O)O)O2 [Example 89AW, (S,E)-3-(4-((3-(difluoromethoxy)phenyl)sulfonyl)-6-(2-ethylstyryl)-3,4-dihydro-2H-benzo[b][1,4]oxazin-2-yl)propanoic acid]
[1]; [4]
  EC50: 500 to 5000 nM
[2]; RORγ-LBD TR-FRET
  EC50: < 500 nM

## CCC(=Cc1ccc2c(c1)N(S(=O)(=O)c1cccc(C(F)(F)F)c1)C[C@H](CCC(=O)O)O2)CC [Example 95E, (S)-3-(6-(2-ethylbut-1-en-1-yl)-4-((3-(trifluoromethyl)phenyl)-sulfonyl)-3,4-dihydro-2H-benzo[b][1,4]oxazin-2-yl)propanoic acid]
[1]; [4]
  EC50: < 500 nM
[2]; RORγ-LBD TR-FRET
  EC50: < 500 nM

## CCn1cc(S(=O)(=O)N2C[C@H]([C@@H](C)N)Oc3ccc(/C=C(\C)c4c(F)cccc4Cl)cc32)c(Cl)n1 [Example 101, (R)-1-((R)-4-((3-Chloro-1-ethyl-1H-pyrazol-4-yl)sulfonyl)-6-((E)-2-(2-chloro-6-fluorophenyl)prop-1-en-1-yl)-3,4-dihydro-2H-benzo[b][1,4]oxazin-2-yl)ethan-1-amine]
[1]; [4]
  EC50: > 10000 nM
[2]; RORγ-LBD TR-FRET
  EC50: < 500 nM

## CCOc1nn(CC)cc1S(=O)(=O)N1C[C@H](CCC(=O)OC)Oc2ccc(/C=C/c3cccs3)cc21 [Example 89P, (S,E)-methyl 3-(4-((3-ethoxy-1-ethyl-1H-pyrazol-4-yl)sulfonyl)-6-(2-(thiophen-2-yl)vinyl)-3,4-dihydro-2H-benzo[b][1,4]oxazin-2-yl)propanoate]
[1]; [4]
  EC50: > 10000 nM
[2]; RORγ-LBD TR-FRET
  EC50: 500 to 5000 nM

## Cn1nccc1/C=C/c1ccc2c(c1)N(S(=O)(=O)c1cccc(C(F)(F)F)c1)C[C@H](CCC(=O)O)O2 [Example 89CI, (S,E)-3-(6-(2-(1-methyl-1H-pyrazol-5-yl)vinyl)-4-((3-(trifluoromethyl)phenyl)sulfonyl)-3,4-dihydro-2H-benzo[b][1,4]-oxazin-2-yl)propanoic acid]
[1]; [4]
  EC50: > 10000 nM
[2]; RORγ-LBD TR-FRET
  EC50: > 10000 nM

From patent US9896441B2 (Lycera Corporation, priority 2014, dated 2018)
